Data on 38 compounds can be found in PubChem BioAssay AID816 (SRMLSC, 2007).

The source made the active and inactive calls. No rule for the calls is given here. Where only a bound is given, the exact number is not on record here.

This assay concerns S. cerevisiae GAL1 promoter reporter activation counterscreen. The assay is described as follows: GAL1 promoter activators in yeast, artefact control for yeast lifespan extension project, S. cerevisiae (AID 816).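 Also: yeast growth read after 24 h of incubation with compounds.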
As to `CCCc1[nH]nc2c1C(c1ccc(Br)s1)C(C#N)=C(N)O2` (stereo not drawn), the EC50 is > 40 µM (inactive). In the case of `Cc1c(NC(=O)C(=O)/C=C(\O)c2ccc(Cl)cc2)c(=O)n(-c2ccccc2)n1C` it was > 40 µM (inactive); in that of `O=c1cc(O)c2c(=O)n(-c3ccccc3)c3c(c2o1)CCCCC3`, > 40 µM (inactive); in that of `COc1ccc(/C=C/C(=O)C2C(=O)C=C(C)OC2=O)cc1O` (stereo not drawn), > 40 µM (inactive). Under `ClC(Cl)(c1nnnn1-c1ccccc1)c1nnnn1-c1ccccc1` stands > 40 µM (inactive); under `Cc1ncc(C23CC4CC(CC(C4)C2)C3)[nH]1`, > 40 µM (inactive); under `N#Cc1ccc(-c2ccc(OCC(=O)NCCc3ccccc3)cc2)cc1`, > 40 µM (inactive). In the case of `CCCCn1c(=O)c(C(=O)Nc2cnccn2)c(O)c2ccccc21` it was > 40 µM (inactive). In the case of `CC(C)Cc1nn2c(=O)cc(O)nc2s1`, the EC50 is > 40 µM (inactive).

Regarding `CCNCCNC(=O)c1c(O)c2cccc3c2n(c1=O)CCC3`, the EC50 is > 40 µM (inactive). For the compound `C=CCN(CC=C)c1nc2ccccc2nc1C(C#N)C(=O)OC(C)C` (stereo not drawn), the EC50 is > 40 µM (inactive). In the case of `O=C(Nc1cccc(Cl)c1)c1ccc2c(=O)n3c(nc2c1)CCCCC3` it was > 40 µM (inactive). As for `C=C(CC)C(=O)c1ccc(OCC(=O)O)c(Cl)c1Cl`, the EC50 is > 40 µM (inactive).

In the case of `CCc1ccc2nc(N3C(=O)C(O)=C(C(=O)c4ccco4)C3c3cccs3)sc2c1` (stereo not drawn), the EC50 was > 40 µM (inactive). Under `O=C(NCc1cccnc1)c1ccc(S(=O)(=O)N2CCCCC2)cc1` stands > 40 µM (inactive).

Consider `O=C(COc1ccc2ccccc2c1)Nc1cccc(C(=O)Nc2ccccc2C(=O)O)c1`, for which the EC50 was > 40 µM (inactive). Under `COc1ccc(C(CNC(=O)c2cccc(Br)c2)N2CCCC2)cc1` (stereo not drawn) stands > 40 µM (inactive); under `CCCCCOC(=O)CSc1nc2c(c(=O)[nH]c(=O)n2C)n1CCc1ccccc1`, > 40 µM (inactive). Under `Cc1cc(N2C(=O)CC(Cc3ccccc3)C2=O)no1` (stereo not drawn) stands > 40 µM (inactive); under `O=C(Nc1ccc(Br)cn1)c1cccc(-c2cc3ccccc3oc2=O)c1`, > 40 µM (inactive); under `COCCCN(C(=S)Nc1cc(Cl)cc(Cl)c1)C(C)c1ccncc1` (stereo not drawn), > 40 µM (inactive).

Regarding `CCOC(=O)C1CCN(C(c2cc3ccc(C)c(C)c3[nH]c2=O)c2nnnn2C2CCCCC2)CC1` (stereo not drawn), the EC50 was > 40 µM (inactive). With `CC(C)c1noc2ncc(C(=O)c3cc(Cl)cc(Cl)c3O)cc12`, the EC50 is > 40 µM (inactive). In the case of `O=S1(=O)C=C(Sc2nc3ccccc3s2)c2ccccc21` it was > 40 µM (inactive); in that of `CCn1cc(C(=O)O)c(=O)c2ccc(C)nc21`, > 40 µM (inactive).

Turning to `CCN(CC)Cc1c(O)c(Cl)cc2c(C)c(C)c(=O)oc12`, the EC50 is > 40 µM (inactive).

For the compound `CN1OC(c2ccccc2)=C(CO)C1c1ccccc1` (stereo not drawn), the EC50 is > 40 µM (inactive).

For the compound `CCC(C)OC(=O)C1C(c2ccccc2)C(C(=O)O)C1c1ccccc1` (stereo not drawn), the EC50 was > 40 µM (inactive). In the case of `COC(=O)C1=C(C(=O)OC)C(c2ccccc2O)c2sc(=O)[nH]c2S1` (stereo not drawn) it was > 40 µM (inactive); in that of `CCc1nnc(N2C(=O)c3ccc(Oc4ccc([N+](=O)[O-])cc4)cc3C2=O)s1`, > 40 µM (inactive); in that of `CC(=O)Oc1oc(-c2ccccc2)nc1C=Nc1ccccc1`, > 40 µM (inactive). In the case of `COc1ccc(NC(=O)/C(Cl)=C(/Cl)S(=O)Cc2ccc(C)cc2)cn1` (stereo not drawn) it was > 40 µM (inactive).

`CC1=C(C#N)C2C(/C1=N/O)C2(C)C` (stereo not drawn): the EC50 was > 40 µM (inactive). Under `O=C(Nc1nc2ccccc2n1CCN1CCOCC1)c1cn(-c2ccccc2)nc1-c1ccccc1` stands > 40 µM (inactive). In the case of `O=C(NC(=S)NNC(=O)c1ccc(Cl)cc1Cl)c1cccnc1`, the EC50 is > 40 µM (inactive). As for `CCOC(=O)c1[nH]nc(C(=O)c2ccc(Br)cc2)c1O`, the EC50 was > 40 µM (inactive). Under `O=C(NC(=S)NNC(=O)c1ccccc1O)c1ccco1` stands > 40 µM (inactive); under `N#C/C(=C\c1ccccc1)C(=O)N(c1ccccn1)C1CCCCC1`, > 40 µM (inactive).
